# US20050090529A1, “3,5 Disubstituted indazole compounds with nitrogen-bearing 5-membered heterocycles, pharmaceutical compositions, and methods for mediating or inhibiting cell proliferation” (PFIZER INC, priority 2003, published 2005)
# Test system: Cyclin-dependent kinase
# Assay: Cyclin-dependent kinase inhibition, % inhibition at 10 nM (library Examples 99-270)
# Format: biochemical
# Conditions: 10 nM compound
# Method: Cyclin-dependent kinase activity was measured by quantifying the enzyme-catalyzed, time-dependent incorporation of radioactive phosphate from [^32P]ATP or [^33P]ATP into a protein substrate. Unless noted otherwise, assays were performed in 96-well plates in a total volume of 50 μL, in the presence of 10 mM HEPES (N-[2-hydroxyethyl]piperazine-N′-[2-ethanesulfonic acid]) (pH 7.4), 10 mM MgCl2, 25 μM adenosine triphosphate (ATP), 1 mg/mL ovalbumin, 5 μg/mL leupeptin, 1 mM dithiothreitol, 10 mM beta-glycerophosphate, 0.1 mM sodium vanadate, 1 mM sodium fluoride, 2.5 mM ethylene glycol-bis(β-aminoethyl ethKer)-N,N,N′N′-tetraacetic acid (EGTA), 2% (v/v) dimethylsulfoxide, and 0.03-0.4 μCi [^32/33P]ATP per reaction. Reactions were initiated with enzyme, incubated at 30° C., and terminated after 20 minutes by the addition of ethylenediaminetetraacetic acid (EDTA) to 250 mM. The phosphorylated substrate was then captured on a nitrocellulose or phosphocellulose membrane using a 96-well filtration manifold, and unincorporated radioactivity was removed by repeated washing with 0.85% phosphoric acid. Radioactivity was quantified by exposing the dried membranes to a phosphorimager.
# Results of assays performed on compounds, which include the specific examples described above are provided in Examples 99-274 above, and in Table 1 below. Unless indicated otherwise in a particular entry, the units and assays used are as indicated in the applicable column of the table.
row,Compound,% Inhib @ 10 nM [%]
1,"CCNCc1cncc(-c2ccc3[nH]nc(-c4ncc(C(=O)NCCCn5ccnc5)[nH]4)c3c2)c1C [Example 99, 2-(5-{5-[(ethylamino)methy]-4-methylpyridin-3-yl}-1H-indazol-3-yl)-N-[3-(1H-imidazol-1-yL)propyl]-1H-imidazole-5-carboxamide]",39
2,CCNCc1cncc(-c2ccc3[nH]nc(-c4ncc(C(=O)NC(C)CO)[nH]4)c3c2)c1C (centres unmarked) [Example 100],65
3,CCNCc1cncc(-c2ccc3[nH]nc(-c4ncc(C(=O)NCc5cccnc5)[nH]4)c3c2)c1C [Example 101],54
4,CCNCc1cncc(-c2ccc3[nH]nc(-c4ncc(C(=O)NCCc5ccccn5)[nH]4)c3c2)c1C [Example 102],81
5,"CCNCc1cncc(-c2ccc3[nH]nc(-c4ncc(C(=O)NCCN5CCOCC5)[nH]4)c3c2)c1C [Example 103, 2-(5-{5-[(ethylamino)methyl]-4-methylpyridin-3-yl}-1H-indazol-3-yl)-N-(2-morpholin-4-ylethyl)-1H-imidazole-5-carboxamide]",40
6,CCNCc1cncc(-c2ccc3[nH]nc(-c4ncc(C(=O)NCCOCCO)[nH]4)c3c2)c1C [Example 104],54
7,"CCNCc1cncc(-c2ccc3[nH]nc(-c4ncc(C(=O)N[C@H](c5ccccc5)[C@@H](O)c5ccccc5)[nH]4)c3c2)c1C [Example 105, 2-(5-{5-[(ethylamino)methyl]-4-methylpyridin-3-yl}-1H-indazol-3-yl)-N-[(1R,2S)-2-hydroxy-1,2-diphenylethyl]-1H-imidazole-5-carboxamide]",74
8,CCNCc1cncc(-c2ccc3[nH]nc(-c4ncc(C(=O)NCc5ccccc5OC)[nH]4)c3c2)c1C [Example 106],78
9,CCNCc1cncc(-c2ccc3[nH]nc(-c4ncc(C(=O)N5CCC(n6c(=O)[nH]c7ccccc76)CC5)[nH]4)c3c2)c1C [Example 107],59
10,"CCNCc1cncc(-c2ccc3[nH]nc(-c4ncc(C(=O)N[C@H](Cc5ccccc5)C(N)=O)[nH]4)c3c2)c1C [Example 108, N-{[2-(5-{5-[(ethylamino)methyl]-4-methylpyridin-3-yl}-1H-indazol-3-yl)-1H-imidazol-5-yl]carbonyl}-D-phenylalaninamide]",57
11,"CCNCc1cncc(-c2ccc3[nH]nc(-c4ncc(C(=O)NCC(N)=O)[nH]4)c3c2)c1C [Example 109, N-(2-amino-2-oxoethyl)-2-(5-{5-[(ethylamino)methyl]-4-methylpyridin-3-yl}-1H-indazol-3-yl)-1H-imidazole-5-carboxamide]",69
12,"CCNCc1cncc(-c2ccc3[nH]nc(-c4ncc(C(=O)NCC5CCCO5)[nH]4)c3c2)c1C (centres unmarked) [Example 110, 2-(5-{5-[(ethylamino)methyl]-4-methylpyridin-3-yl}-1H-indazol-3-yl)-N-(tetrahydrofuran-2-ylmethyl)-1H-imidazole-5-carboxamide]",66
13,"CCNCc1cncc(-c2ccc3[nH]nc(-c4ncc(C(=O)N[C@@H](CO)[C@@H](O)c5ccc(SC)cc5)[nH]4)c3c2)c1C [Example 111, 2-(5-{5-[(ethylamino)methyl]-4-methylpyridin-3-yl}-1H-indazol-3-yl)-N-{(1S,2S)-2-hydroxy-1-(hydroxymethyl)-2-[4-(methylthio)phenyl]ethyl}-1H-imidazole-5-carboxamide]",73
14,"CCNCc1cncc(-c2ccc3[nH]nc(-c4ncc(C(=O)N5CCC(O)(c6ccccc6)CC5)[nH]4)c3c2)c1C [Example 112, 1-{[2-(5-{5-[(ethylamino)methyl]-4-methylpyridin-3-yl}-1H-indazol-3-yl)-1H-imidazol-5-yl]carbonyl}-4-phenylpiperidin-4-ol]",80
15,"CCNCc1cncc(-c2ccc3[nH]nc(-c4ncc(C(=O)N5CCC(C#N)(c6ccccc6)CC5)[nH]4)c3c2)c1C [Example 113, 1-{[2-(5-{5-[(ethylamino)methyl]-4-methylpyridin-3-yl}-1H-indazol-3-yl)-1H-imidazol-5-yl]carbonyl}-4-phenylpiperidine-4-carbonitrile]",61
16,"CCNCc1cncc(-c2ccc3[nH]nc(-c4ncc(C(=O)NCCc5cccc(OC)c5)[nH]4)c3c2)c1C [Example 114, 2-(5-{5-[(ethylamino)methyl]-4-methylpyridin-3-yl}-1H-indazol-3-yl)-N-[2-(3-methoxyphenyl)ethyl]-1H-imidazole-5-carboxamide]",64

row,Compound,% Inhib @ 10 nM [%]
1,"CCNCc1cncc(-c2ccc3[nH]nc(-c4ncc(C(=O)N5CCN(c6ccccn6)CC5)[nH]4)c3c2)c1C [Example 115, ethyl{[4-methyl-5-(3-{5-[(4-pyridin-2-piperazin-1-yl)carbonyl]-1H-imidazol-yl}-1H-indazol-5-yl)pyridin-3-yl]methyl}amine]",72
2,CCNCc1cncc(-c2ccc3[nH]nc(-c4ncc(C(=O)N5CCN(C(C)=O)CC5)[nH]4)c3c2)c1C [Example 116],66
3,CCNCc1cncc(-c2ccc3[nH]nc(-c4ncc(C(=O)N5CCN(Cc6ccccc6)CC5)[nH]4)c3c2)c1C [Example 117],72
4,"CCNCc1cncc(-c2ccc3[nH]nc(-c4ncc(C(=O)N5CCN(CC(=O)NC(C)C)CC5)[nH]4)c3c2)c1C [Example 118, 2-(4-{[2-(5-{5-[(ethylamino)methyl]-4-methylpyridin-3-yl}-1H-indazol-3-yl)-1H-imidazol-5-yl]carbonyl}piperazin-1-yl)-N-isopropylacetamide]",44
5,"CCNCc1cncc(-c2ccc3[nH]nc(-c4ncc(C(=O)N5CCCN(C)CC5)[nH]4)c3c2)c1C [Example 119, ethyl{(4-methyl-5-(3-{5-[(4-methyl-1,4-diazepan-1-yl)carbonyl]-1H-imidazol-2-yl}-1H-indazol-5-yl)pyridin-3-yl]methyl}amine]",38
6,CCNCc1cncc(-c2ccc3[nH]nc(-c4ncc(C(=O)NCCc5c[nH]c6cc(OC)ccc56)[nH]4)c3c2)c1C [Example 120],45
7,"CCNCc1cncc(-c2ccc3[nH]nc(-c4ncc(C(=O)N5CCc6cc(OC)c(OC)cc6C5)[nH]4)c3c2)c1C [Example 121, {[5-(3-{5-[(6,7-dimethoxy-3,4-dihydroisoquinolin-2(1H)-yl)carbonyl}-1H-imidazol-2-yl}-1H-indazol-5-yl)-4-methylpyridin-3-yl]methyl)ethylamine]",69
8,CCNCc1cncc(-c2ccc3[nH]nc(-c4ncc(C(=O)N(C)CCCN(C)C)[nH]4)c3c2)c1C [Example 122],30
9,"CCNCc1cncc(-c2ccc3[nH]nc(-c4ncc(C(=O)N(CCN(C)C)Cc5ccccc5)[nH]4)c3c2)c1C [Example 123, N-benzyl-N-[2-(dimethylamino)ethyl]-2-(5-{5-[(ethylamino)methyl]-4-methylpyridin-3-yl}-1H-indazol-3-yl)-1H-imidazale-5-carboxamide]",54
10,"CCNCc1cncc(-c2ccc3[nH]nc(-c4ncc(C(=O)N(CCO)Cc5ccccc5)[nH]4)c3c2)c1C [Example 124, N-benzyl-2-(5-{5-[(ethylamino)methyl]-4-methylpyridin-3-yl}-1H-indazol-3-yl)-N-(2-hydroxyethyl)-1H-imidazole-5-carboxamide]",56
11,"CCNCc1cncc(-c2ccc3[nH]nc(-c4ncc(C(=O)N5CCN(CCO)CC5)[nH]4)c3c2)c1C [Example 125, 2-(4-{[2-(5-{5-[(ethylamino)methyl]-4-methylpyridin-3-yl}-1H-indazol-3-yl)-1H-imidazol-5-yl]carbonyl}piperazin-1-yl)ethanol]",40
12,"CCNCc1cncc(-c2ccc3[nH]nc(-c4ncc(C(=O)NC5C6CC7CC(C6)CC5C7)[nH]4)c3c2)c1C (centres unmarked) [Example 126, N-2-adamantyl-2-(5-{5-[(ethylamino)methyl]-4-methylpyridin-3-yl}-1H-indazol-3-yl)-1H-imidazole-5-carboxamide]",89
13,"CCNCc1cncc(-c2ccc3[nH]nc(-c4ncc(C(=O)N5CCN(CC(=O)N6CCOCC6)CC5)[nH]4)c3c2)c1C [Example 127, ethyl({4-methyl-5-[3-(5-{[4-(2-morpholin-4-yl-2-oxoethyl)piperazin-1-yl]carbonyl}-1H-imidazol-2-yl)-1H-indazol-5-yl]pyridin-3-yl}methyl)amine]",26
14,CCNCc1cncc(-c2ccc3[nH]nc(-c4ncc(C(=O)N5CCC(NC(C)=O)C5)[nH]4)c3c2)c1C (centres unmarked) [Example 129],55
15,CCNCc1cncc(-c2ccc3[nH]nc(-c4ncc(C(=O)NCCCN5CCCC5=O)[nH]4)c3c2)c1C [Example 130],28
16,CCNCc1cncc(-c2ccc3[nH]nc(-c4ncc(C(=O)NCCC5=CCCCC5)[nH]4)c3c2)c1C [Example 131],57
